Measured values taken from ChEMBL document CHEMBL5465560, “Selectivity Literature for EUbOPEN Chemogenomic Library” (2024).

Experiments:
[1] = molecular target: T1, MAP/microtubule affinity-regulating kinase 4 (Homo sapiens) (UniProt Q96L34); assay: Selectivity interaction (KinomeScan (DiscoverX)) EUB0000666a MARK4; conditions: at 10 µM
T1 sequence (whole entry): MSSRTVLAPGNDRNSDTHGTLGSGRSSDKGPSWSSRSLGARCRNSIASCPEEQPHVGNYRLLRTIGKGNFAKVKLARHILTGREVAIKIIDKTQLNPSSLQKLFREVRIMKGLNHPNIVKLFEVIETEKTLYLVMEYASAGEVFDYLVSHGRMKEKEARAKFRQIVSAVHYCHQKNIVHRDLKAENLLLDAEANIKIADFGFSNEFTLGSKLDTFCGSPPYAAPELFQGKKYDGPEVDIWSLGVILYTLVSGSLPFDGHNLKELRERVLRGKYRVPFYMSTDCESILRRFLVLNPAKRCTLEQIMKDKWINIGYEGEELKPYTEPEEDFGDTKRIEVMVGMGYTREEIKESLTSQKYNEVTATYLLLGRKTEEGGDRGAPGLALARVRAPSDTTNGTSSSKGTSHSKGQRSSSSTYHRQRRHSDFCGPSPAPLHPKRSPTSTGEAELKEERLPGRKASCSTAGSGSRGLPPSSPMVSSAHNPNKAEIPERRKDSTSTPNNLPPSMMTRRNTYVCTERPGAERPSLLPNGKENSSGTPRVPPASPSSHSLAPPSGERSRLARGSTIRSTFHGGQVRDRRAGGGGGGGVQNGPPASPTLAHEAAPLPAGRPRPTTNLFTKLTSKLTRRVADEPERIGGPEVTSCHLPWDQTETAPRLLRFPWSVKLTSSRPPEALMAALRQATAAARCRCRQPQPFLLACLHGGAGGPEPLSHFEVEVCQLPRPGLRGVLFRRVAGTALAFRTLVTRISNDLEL

[2] = molecular target: Tyrosine-protein kinase BTK (Homo sapiens, UniProt Q06187); assay: Selectivity interaction (Upstate Kinase Profiler service (Millipore)) EUB0000056c BTK; conditions: at 1 µM
[3] = molecular target: Protein kinase C eta type (Homo sapiens) (UniProt P24723); conditions: at 10 µM
Aurora kinase B = Aurora kinase B (Homo sapiens, UniProt Q96GD4); assay: Selectivity interaction (Kinase panel (Invitrogen)) EUB0000639a AURKB; conditions: at 200 nM
[4] = molecular target: T2, Serine/threonine-protein kinase Nek2 (Homo sapiens) (UniProt P51955); assay: Selectivity interaction (Kinase screening (Nanosyn)) EUB0000604a NEK2
T2 sequence (whole entry): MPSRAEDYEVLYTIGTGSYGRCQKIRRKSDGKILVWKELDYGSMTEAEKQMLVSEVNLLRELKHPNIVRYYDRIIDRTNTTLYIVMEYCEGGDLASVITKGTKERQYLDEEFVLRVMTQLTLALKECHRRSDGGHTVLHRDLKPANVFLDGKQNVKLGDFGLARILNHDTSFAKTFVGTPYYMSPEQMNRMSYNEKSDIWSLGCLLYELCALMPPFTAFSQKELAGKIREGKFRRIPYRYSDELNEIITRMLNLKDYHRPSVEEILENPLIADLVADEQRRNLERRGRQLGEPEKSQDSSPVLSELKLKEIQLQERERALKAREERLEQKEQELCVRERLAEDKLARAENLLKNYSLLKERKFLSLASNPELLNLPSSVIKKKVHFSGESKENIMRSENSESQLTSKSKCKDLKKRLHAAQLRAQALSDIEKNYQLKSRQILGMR

[5] = molecular target: Interleukin-1 receptor-associated kinase 1 (Homo sapiens) (UniProt P51617); assay: Selectivity interaction (KinomeScan (DiscoverX)) EUB0000655a IRAK1; conditions: at 10 µM
[6] = molecular target: SRSF protein kinase 2 (Homo sapiens) (UniProt P78362); assay: Selectivity interaction (KinomeScan (DiscoverX)) EUB0000045b SRPK2
[7] = molecular target: T3, Ephrin type-B receptor 6 (Homo sapiens) (UniProt O15197); assay: Selectivity interaction (KinomeScan (DiscoverX)) EUB0001079a EPHB6; conditions: at 1 µM
T3 sequence (whole entry): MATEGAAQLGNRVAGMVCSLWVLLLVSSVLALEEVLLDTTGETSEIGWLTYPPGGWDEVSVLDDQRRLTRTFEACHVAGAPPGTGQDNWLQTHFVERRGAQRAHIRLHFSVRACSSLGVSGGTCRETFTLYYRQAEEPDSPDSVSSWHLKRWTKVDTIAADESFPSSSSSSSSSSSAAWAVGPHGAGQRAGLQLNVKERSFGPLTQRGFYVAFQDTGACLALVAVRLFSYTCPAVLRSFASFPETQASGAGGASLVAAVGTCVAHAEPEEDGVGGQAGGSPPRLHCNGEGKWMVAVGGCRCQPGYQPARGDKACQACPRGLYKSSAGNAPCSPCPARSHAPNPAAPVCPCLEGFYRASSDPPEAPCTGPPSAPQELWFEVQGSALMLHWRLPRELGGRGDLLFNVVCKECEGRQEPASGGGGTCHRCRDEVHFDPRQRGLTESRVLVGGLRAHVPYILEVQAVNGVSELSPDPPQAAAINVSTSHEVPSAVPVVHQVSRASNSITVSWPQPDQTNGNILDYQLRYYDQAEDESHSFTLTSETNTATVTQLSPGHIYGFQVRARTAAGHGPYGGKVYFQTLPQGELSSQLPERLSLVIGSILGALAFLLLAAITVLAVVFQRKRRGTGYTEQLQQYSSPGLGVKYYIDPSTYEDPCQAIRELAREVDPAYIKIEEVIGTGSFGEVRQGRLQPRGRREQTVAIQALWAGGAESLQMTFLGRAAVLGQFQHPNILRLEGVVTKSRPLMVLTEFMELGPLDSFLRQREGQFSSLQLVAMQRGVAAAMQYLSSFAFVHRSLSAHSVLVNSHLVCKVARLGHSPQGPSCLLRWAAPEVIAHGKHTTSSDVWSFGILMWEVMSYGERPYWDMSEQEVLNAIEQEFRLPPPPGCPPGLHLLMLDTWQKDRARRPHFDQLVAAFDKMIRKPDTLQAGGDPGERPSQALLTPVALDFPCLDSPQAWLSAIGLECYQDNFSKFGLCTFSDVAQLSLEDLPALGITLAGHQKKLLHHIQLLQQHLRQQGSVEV

[8] = test system: Epidermal growth factor receptor (Homo sapiens), P00533 [UNDEFINED MUTATION]; assay: Selectivity interaction (KinomeScan (DiscoverX)) EUB0000229b EGFR; conditions: at 1 µM
[9] = molecular target: Proto-oncogene tyrosine-protein kinase receptor Ret (Homo sapiens, UniProt P07949); assay: (§1) Selectivity interaction (KinomeScan (DiscoverX)) EUB0000229b RET; conditions: at 10 µM
[10] = test system: Proto-oncogene tyrosine-protein kinase receptor Ret (Homo sapiens), P07949 [V804M]; assay: as §1; conditions: at 1 µM
[11] = test system: Proto-oncogene tyrosine-protein kinase receptor Ret (Homo sapiens), P07949 [M918T]; assay: as §1; conditions: at 1 µM
[12] = test system: Proto-oncogene tyrosine-protein kinase receptor Ret (Homo sapiens), P07949 [V804L]; assay: as §1; conditions: at 1 µM
[13] = molecular target: Mitogen-activated protein kinase kinase kinase kinase 5 (Homo sapiens) (UniProt Q9Y4K4); conditions: at 10 µM
Sequence of Mitogen-activated protein kinase kinase kinase kinase 5 (Homo sapiens) (Q9Y4K4 whole entry, looked up): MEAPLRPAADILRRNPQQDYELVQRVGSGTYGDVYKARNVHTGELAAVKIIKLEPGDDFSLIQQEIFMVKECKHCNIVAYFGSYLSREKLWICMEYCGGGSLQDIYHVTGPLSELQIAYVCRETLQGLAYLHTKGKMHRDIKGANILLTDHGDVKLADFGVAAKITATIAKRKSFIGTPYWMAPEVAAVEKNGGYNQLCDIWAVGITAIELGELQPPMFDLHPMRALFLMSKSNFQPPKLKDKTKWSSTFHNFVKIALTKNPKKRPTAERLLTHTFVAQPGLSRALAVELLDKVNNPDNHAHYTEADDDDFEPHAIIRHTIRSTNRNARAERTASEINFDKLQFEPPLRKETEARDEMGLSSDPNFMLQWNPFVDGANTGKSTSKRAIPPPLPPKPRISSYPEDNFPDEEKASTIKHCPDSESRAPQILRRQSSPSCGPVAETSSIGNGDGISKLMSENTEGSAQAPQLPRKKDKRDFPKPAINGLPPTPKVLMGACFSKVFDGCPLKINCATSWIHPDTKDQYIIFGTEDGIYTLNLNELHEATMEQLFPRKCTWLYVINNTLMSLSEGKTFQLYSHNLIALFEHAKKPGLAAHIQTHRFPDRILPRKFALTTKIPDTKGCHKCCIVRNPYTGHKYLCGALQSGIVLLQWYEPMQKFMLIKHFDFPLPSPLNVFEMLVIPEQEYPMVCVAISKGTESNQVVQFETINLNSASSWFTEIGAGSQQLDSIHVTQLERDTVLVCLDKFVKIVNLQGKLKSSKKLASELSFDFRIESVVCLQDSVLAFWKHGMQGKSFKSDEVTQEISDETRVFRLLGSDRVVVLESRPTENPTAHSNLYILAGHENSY

Sequence of SRSF protein kinase 2 (Homo sapiens) (P78362 whole entry, looked up): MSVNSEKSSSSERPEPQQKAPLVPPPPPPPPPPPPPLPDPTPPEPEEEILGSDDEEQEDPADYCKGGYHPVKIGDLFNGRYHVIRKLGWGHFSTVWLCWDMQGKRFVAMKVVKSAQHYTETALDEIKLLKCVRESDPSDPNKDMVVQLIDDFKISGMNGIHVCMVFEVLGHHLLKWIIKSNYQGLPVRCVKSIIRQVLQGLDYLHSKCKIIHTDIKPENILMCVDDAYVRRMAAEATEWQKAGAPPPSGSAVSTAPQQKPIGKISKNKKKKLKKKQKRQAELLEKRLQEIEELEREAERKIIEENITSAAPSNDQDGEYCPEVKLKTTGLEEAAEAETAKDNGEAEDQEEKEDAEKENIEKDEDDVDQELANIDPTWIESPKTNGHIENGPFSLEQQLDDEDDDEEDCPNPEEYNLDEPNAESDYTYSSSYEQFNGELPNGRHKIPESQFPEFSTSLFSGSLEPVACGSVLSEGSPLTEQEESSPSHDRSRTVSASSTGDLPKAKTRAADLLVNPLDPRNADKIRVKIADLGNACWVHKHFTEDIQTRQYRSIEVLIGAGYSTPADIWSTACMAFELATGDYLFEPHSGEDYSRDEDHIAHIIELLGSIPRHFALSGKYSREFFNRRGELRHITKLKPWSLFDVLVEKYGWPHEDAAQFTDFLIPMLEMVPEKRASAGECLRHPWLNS
Sequence of Interleukin-1 receptor-associated kinase 1 (Homo sapiens) (P51617 whole entry, looked up): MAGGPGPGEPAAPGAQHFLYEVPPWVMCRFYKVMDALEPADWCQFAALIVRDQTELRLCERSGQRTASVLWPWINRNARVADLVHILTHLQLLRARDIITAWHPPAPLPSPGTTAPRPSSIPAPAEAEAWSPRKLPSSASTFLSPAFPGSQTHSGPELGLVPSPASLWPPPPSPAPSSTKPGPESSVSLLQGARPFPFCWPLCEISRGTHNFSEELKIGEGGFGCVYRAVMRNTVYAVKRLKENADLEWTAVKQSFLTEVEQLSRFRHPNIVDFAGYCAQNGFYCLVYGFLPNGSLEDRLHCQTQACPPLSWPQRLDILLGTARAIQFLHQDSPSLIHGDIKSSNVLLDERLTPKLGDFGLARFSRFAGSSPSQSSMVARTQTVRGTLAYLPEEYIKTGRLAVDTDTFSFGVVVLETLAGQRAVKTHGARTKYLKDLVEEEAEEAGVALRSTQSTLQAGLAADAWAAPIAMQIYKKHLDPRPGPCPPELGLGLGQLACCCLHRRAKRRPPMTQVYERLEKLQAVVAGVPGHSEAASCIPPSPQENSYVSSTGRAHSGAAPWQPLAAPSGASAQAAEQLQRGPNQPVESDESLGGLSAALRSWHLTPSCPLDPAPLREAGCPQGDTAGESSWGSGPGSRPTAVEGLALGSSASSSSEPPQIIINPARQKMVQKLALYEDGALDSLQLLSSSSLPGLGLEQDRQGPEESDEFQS
Sequence of Aurora kinase B (Q96GD4 whole entry): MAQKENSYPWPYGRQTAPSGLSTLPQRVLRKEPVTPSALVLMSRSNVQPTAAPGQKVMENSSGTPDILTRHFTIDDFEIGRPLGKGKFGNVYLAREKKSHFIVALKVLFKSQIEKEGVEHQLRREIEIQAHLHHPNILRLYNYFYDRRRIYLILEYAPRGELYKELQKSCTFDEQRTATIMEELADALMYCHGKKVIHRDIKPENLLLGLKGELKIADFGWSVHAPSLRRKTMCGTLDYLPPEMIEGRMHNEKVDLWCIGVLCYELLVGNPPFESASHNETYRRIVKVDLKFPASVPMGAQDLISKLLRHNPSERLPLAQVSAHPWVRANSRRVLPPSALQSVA
Sequence of Proto-oncogene tyrosine-protein kinase receptor Ret (Homo sapiens), P07949 [V804L] (P07949 whole entry V804L): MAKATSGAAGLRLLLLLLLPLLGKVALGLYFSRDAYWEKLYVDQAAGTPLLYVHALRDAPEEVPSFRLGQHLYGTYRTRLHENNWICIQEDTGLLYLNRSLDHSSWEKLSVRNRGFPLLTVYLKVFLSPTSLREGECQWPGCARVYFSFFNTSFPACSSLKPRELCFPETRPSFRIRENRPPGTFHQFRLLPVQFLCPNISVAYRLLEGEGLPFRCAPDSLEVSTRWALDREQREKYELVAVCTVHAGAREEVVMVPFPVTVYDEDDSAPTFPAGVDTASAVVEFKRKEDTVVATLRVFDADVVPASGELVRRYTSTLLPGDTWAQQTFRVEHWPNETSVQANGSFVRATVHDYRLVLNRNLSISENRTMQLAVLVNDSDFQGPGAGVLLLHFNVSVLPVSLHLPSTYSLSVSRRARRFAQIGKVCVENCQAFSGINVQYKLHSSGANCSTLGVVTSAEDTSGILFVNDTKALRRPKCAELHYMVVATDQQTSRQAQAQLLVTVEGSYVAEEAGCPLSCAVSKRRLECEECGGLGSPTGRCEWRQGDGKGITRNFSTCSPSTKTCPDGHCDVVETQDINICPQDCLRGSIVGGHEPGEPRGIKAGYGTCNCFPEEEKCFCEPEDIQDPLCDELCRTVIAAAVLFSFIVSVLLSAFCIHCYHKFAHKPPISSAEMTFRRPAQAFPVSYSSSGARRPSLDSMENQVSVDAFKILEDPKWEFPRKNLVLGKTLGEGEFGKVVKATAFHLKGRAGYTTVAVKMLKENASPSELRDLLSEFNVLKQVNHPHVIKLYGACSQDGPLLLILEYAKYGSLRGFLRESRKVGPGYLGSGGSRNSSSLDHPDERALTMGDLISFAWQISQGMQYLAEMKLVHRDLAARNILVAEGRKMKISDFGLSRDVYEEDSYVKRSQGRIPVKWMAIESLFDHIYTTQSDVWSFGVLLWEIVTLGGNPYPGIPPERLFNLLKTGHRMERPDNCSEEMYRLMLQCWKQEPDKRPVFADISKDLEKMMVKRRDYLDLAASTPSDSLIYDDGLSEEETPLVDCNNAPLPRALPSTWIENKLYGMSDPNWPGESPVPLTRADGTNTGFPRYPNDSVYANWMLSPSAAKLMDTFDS
Sequence of Protein kinase C eta type (Homo sapiens) (P24723 whole entry): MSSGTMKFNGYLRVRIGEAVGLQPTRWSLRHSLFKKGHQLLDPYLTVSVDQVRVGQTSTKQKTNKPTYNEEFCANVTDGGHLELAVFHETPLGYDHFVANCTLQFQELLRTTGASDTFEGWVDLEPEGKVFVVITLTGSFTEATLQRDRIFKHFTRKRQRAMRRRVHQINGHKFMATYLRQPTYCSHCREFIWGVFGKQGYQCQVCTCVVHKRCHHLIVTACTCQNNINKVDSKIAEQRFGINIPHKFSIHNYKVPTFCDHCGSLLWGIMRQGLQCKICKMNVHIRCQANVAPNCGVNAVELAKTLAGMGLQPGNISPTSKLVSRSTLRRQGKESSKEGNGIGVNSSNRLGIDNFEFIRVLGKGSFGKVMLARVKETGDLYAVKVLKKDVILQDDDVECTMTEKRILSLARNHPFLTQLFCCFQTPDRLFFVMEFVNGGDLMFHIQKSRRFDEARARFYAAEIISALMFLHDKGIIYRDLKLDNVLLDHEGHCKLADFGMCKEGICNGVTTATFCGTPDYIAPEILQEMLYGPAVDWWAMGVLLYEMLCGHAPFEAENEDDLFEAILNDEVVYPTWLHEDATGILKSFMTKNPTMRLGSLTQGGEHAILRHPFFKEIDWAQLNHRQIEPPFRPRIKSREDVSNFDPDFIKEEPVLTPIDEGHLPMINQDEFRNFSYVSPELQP
Sequence of Proto-oncogene tyrosine-protein kinase receptor Ret (Homo sapiens), P07949 [M918T] (P07949 whole entry M918T): as the sequence (P07949 whole entry V804L) above, with L804V, M918T counted along it
Sequence of Proto-oncogene tyrosine-protein kinase receptor Ret (Homo sapiens), P07949 [V804M] (P07949 whole entry V804M): as the sequence (P07949 whole entry V804L) above, with L804M counted along it
Sequence of Proto-oncogene tyrosine-protein kinase receptor Ret (P07949 whole entry): as the sequence (P07949 whole entry V804L) above, with L804V counted along it

## O=C(NOC[C@H](O)CO)c1ccc(F)c(F)c1Nc1ccc(I)cc1F
[1]
  % of control: 100%

## Cc1ccc(-c2ccc3c(ccc4sc5c(c43)NC[C@@H](C)NC5=O)n2)cn1
[2]
  % of inhibition: 6%

## CCN(CC)CCCCNc1ncc2cc(-c3cc(OC)cc(OC)c3)c(NC(=O)NC(C)(C)C)nc2n1
[3]
  % of control: 100%

## CC[C@@H]1[C@H](F)C(=O)N[C@@H]1COc1nccc2cc(C(N)=O)c(OC)cc12 [ZIMLOVISERTIB]
Aurora kinase B
  % of inhibition: 11.3%

## Cc1cnc(Nc2ccc(F)cc2Cl)nc1-c1c[nH]c(C(=O)N[C@H](CO)c2cccc(Cl)c2)c1
[4]
  % of inhibition: 3%

## CN(C)CCOc1ccc(-c2nc(-c3ccncc3)c(-c3ccc4c(c3)CC/C4=N\O)[nH]2)cc1
[5]
  % of control: 16%

## C=CC(=O)Nc1cc(-n2c(=O)ccc3cnc4ccc(-c5ccc(NS(C)(=O)=O)cc5)cc4c32)ccc1C
[6]; at 1 µM
  % of control: 100%
[6]; at 10 µM
  % of control: 81%

## Nc1cnc(N2CCc3cc(S(=O)(=O)Nc4c(F)cc(Cl)cc4F)cc(N4CCCC4=O)c32)nc1 [TP-020n]
[7]
  % of control: 100%

## COc1cc(N(C)c2ccnc3ccc(C(F)(F)F)cc23)cc(OC)c1OC
[8]
  % binding: 97%
[9]
  % binding: 97%
[10]
  % binding: 89%
[11]
  % binding: 100%
[12]
  % binding: 96%

## Cc1cc([C@@H](C)Nc2ccccc2C(=O)O)c2nc(N3CCOCC3)cc(=O)n2c1 [AZD-6482]
[13]
  % of control: 96%
